Assay results: patent US8178654B2, “Estrogen receptor intramolecular folding systems, estrogen receptor intramolecular folding sensors, methods of use thereof, methods of detecting ER ligands, and methods of detecting ER agonists and antagonists” (Stanford University, priority 2006, dated 2012)

Assays:
[1] = molecular target: T1, hER281-549 (human estrogen receptor alpha ligand binding domain amino acids 281-549) (Homo sapiens, UniProt P03372, G400V); test: Ligand-induced intramolecular folding split RLUC complementation, N-RLUC-hER281-549-C-RLUC in transfected cells; type: cell-based; details: for ligand-induced RLUC complementation signal (in words): transfected cells, 1 μM ligand, 18 hours
T1 construct: expressed in transfected cells; host or cells: 293T (transient); also transfected MCF7 and MDA-MB231
T1 sequence (P03372 281-549 G400V): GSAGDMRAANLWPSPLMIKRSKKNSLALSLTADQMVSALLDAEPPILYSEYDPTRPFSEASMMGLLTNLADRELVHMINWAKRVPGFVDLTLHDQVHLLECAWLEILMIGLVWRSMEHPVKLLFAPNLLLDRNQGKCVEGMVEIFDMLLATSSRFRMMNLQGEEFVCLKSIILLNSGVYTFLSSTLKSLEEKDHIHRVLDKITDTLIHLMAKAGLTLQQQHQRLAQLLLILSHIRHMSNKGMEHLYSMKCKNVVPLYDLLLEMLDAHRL
Protocol: (§1) For transfection, 200 ng DNA/well were used in 12 well culture plates. Volumes of Lipofectamine were as recommended by the manufacturer. The co-transfection of 10 ng/well Fluc DNA served as control for normalizing transfection. The cells were assayed after 18 hours of incubation at 37° C. with 5% CO2. The luminometry assay for Renilla Luciferase activity was performed as per protocol published previously. In brief, the cells were lysed in 200 μl of 1× passive lysis buffer (Promega, Madison, Wis.) by shaking for 15 min at room temperature. The cell lysates were centrifuged for 5 min at 10,000 rpm at 4° C. Twenty μl of supernatants were assayed by adding 1 μg of substrate coelenterazine in 100 μl of 0.05M sodium phosphate buffer (pH 7.0) followed by photon counting in the luminometer (Turner Designs, model T 20/20, Sunnyvale, Calif.) for 10 s. The readings were normalized by measuring the protein concentration in the cell lysates and also by measuring the FLUC activity. Activity of RLUC was represented as normalized relative light units (RLU) per microgram of protein.
The cells were assayed for RLUC activity after 18 hours of incubation. The results were normalized as mentioned in the previous experiments.
The results were normalized as mentioned in the previous experiments.
(§2) The ligand agonists and antagonists specific intramolecular folding were studied in ER positive and negative cell lines. […] The cells exposed to solvent DMSO served as control. The same samples were analysed by Western blot for the detection of the transfected protein level using anti-RLUC antibody using the method mentioned above.

[2] = molecular target: hERG521R (Homo sapiens, UniProt P03372, G400V/G521R); details: mutant human ER
Protocol: as §1

[3] = molecular target: T2, fusion protein N-RLUC-hER281-549-C-RLUC in 293T cells (Homo sapiens, UniProt P03372, G400V); test: Western blot of sensor fusion protein level in transfected 293T cells (anti-RLUC antibody); type: cell-based; details: 1 μM ligand, 18 hours
T2 construct: expressed in transfected cells; host or cells: 293T (transient)
T2 sequence (P03372 281-549 G400V): T1 sequence (P03372 281-549 G400V)
Protocol: as §2

Sequence of hERG521R (P03372 281-595 G400V/G521R): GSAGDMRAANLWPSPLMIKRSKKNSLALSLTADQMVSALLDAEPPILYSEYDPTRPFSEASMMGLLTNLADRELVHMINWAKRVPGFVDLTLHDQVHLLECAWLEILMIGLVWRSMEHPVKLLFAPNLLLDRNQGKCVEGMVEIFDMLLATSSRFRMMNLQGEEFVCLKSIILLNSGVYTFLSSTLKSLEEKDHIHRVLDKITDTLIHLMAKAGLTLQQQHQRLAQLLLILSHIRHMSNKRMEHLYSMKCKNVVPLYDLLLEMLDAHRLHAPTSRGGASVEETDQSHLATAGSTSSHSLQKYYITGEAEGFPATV

Compound | ligand-induced RLUC complementation signal (in words) [1] | expressed fusion (sensor) protein level [3] | further results
4-hydroxytamoxifen | – | – | RLUC complementation at different time points (in words) [1]: significant (P<0.0015) level of RLUC complementation; complemented Renilla Luciferase activity relative to cells before exposed to ligand [1]: 80±15 times; concentration dependence of RLUC activity (in words) [1]: increased RLUC activity; receptor mediated RLUC complementation [2]: 3-5%
N.N.[Cl][Pt][Cl] [Cisplatinum] | not significantly different from cells transfected and not exposed to any ligands | significant reduction in the expressed fusion protein levels | –
COc1cccc2c1C(=O)c1c(O)c3c(c(O)c1C2=O)C[C@@](O)(C(=O)CO)C[C@@H]3O[C@H]1C[C@H](N)[C@H](O)[C@H](C)O1 [Doxirubicin] | not significantly different from cells transfected and not exposed to any ligands | – | –
O=C(O[C@@H]1Cc2c(O)cc(O)cc2O[C@@H]1c1cc(O)c(O)c(O)c1)c1cc(O)c(O)c(O)c1 [Epigallocatechin gallate] | not significantly different from cells transfected and not exposed to any ligands | significant reduction in the expressed fusion protein levels | –
C[C@]12CC[C@@H]3c4ccc(O)cc4C[C@@H](CCCCCCCCC[S+]([O-])CCCC(F)(F)C(F)(F)F)[C@H]3[C@@H]1CC[C@@H]2O (stereo partly shown) [ICI182,780] | – | no significant level of degradation | –
